Experimental data reported in PubChem BioAssay (NCI).
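These data come from cells grown in 96-well plates and exposed to compound for 48 hours at five concentrations. TGI is the concentration that stops growth completely.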

Key:
Assay in all cases: NCI anticancer screen, dose series, 48 h
COLO 205 colon = tested on: COLO 205 colon
EKVX NSCLC = tested on: EKVX NSCLC
HCC-2998 colon = tested on: HCC-2998 colon
HCT-116 colon = tested on: HCT-116 colon
HCT-15 colon = tested on: HCT-15 colon
HOP-62 NSCLC = tested on: HOP-62 NSCLC
IGROV1 ovarian = tested on: IGROV1 ovarian
K-562 leukemia = tested on: K-562 leukemia
MALME-3M melanoma = tested on: MALME-3M melanoma
MDA-N = tested on: MDA-N
NCI-H460 lung = tested on: NCI-H460 lung
NCI-H522 lung = tested on: NCI-H522 lung
OVCAR-3 ovarian = tested on: OVCAR-3 ovarian
SF-268 CNS = tested on: SF-268 CNS
SF-295 CNS = tested on: SF-295 CNS
SK-MEL-2 melanoma = tested on: SK-MEL-2 melanoma
SNB-75 CNS = tested on: SNB-75 CNS
T-47D breast = tested on: T-47D breast
U251 CNS = tested on: U251 CNS
NCI-H226 lung = tested on: NCI-H226 lung

Compound	TGI (COLO 205 colon)	TGI (EKVX NSCLC)	TGI (HCC-2998 colon)	TGI (HCT-116 colon)	TGI (HCT-15 colon)	TGI (HOP-62 NSCLC)	TGI (IGROV1 ovarian)	TGI (K-562 leukemia)	TGI (MALME-3M melanoma)	TGI (MDA-N)	TGI (NCI-H460 lung)	TGI (NCI-H522 lung)	TGI (OVCAR-3 ovarian)	TGI (SF-268 CNS)	TGI (SF-295 CNS)	TGI (SK-MEL-2 melanoma)	TGI (SNB-75 CNS)	TGI (T-47D breast)	TGI (U251 CNS)	TGI (NCI-H226 lung)
CCN(CC)C(=O)C1=C(C)NC(C)=C(C(=O)N(CC)CC)C1	> 100 µM	> 100 µM	> 100 µM	> 100 µM	> 100 µM	> 100 µM	> 100 µM	> 100 µM	> 100 µM	> 100 µM	> 100 µM	> 100 µM	> 100 µM	> 100 µM	> 100 µM	> 100 µM	93.4 µM	> 100 µM	> 100 µM	–
CCOP(=O)(OCC)/C(=C/c1ccccc1)CC(C)=O	> 100 µM	> 100 µM	> 100 µM	> 100 µM	> 100 µM	> 100 µM	> 100 µM	> 100 µM	> 100 µM	> 100 µM	> 100 µM	–	> 100 µM	> 100 µM	> 100 µM	> 100 µM	> 100 µM	> 100 µM	> 100 µM	> 100 µM
Brc1ccc(-c2ccc(-c3ccc(-c4ccc(Br)s4)s3)s2)s1	> 100 µM	> 100 µM	> 100 µM	> 100 µM	> 100 µM	> 100 µM	> 100 µM	> 100 µM	–	> 100 µM	> 100 µM	–	> 100 µM	> 100 µM	> 100 µM	–	> 100 µM	> 100 µM	> 100 µM	> 100 µM
Oc1c(Cl)ccc2cccnc12	> 100 µM	39.4 µM	> 100 µM	4.56 µM	> 100 µM	59.6 µM	1.86 µM	7.56 µM	> 100 µM	> 100 µM	88 µM	7.78 µM	> 100 µM	> 100 µM	68.4 µM	–	89.6 µM	25.8 µM	> 100 µM	71.2 µM
C/C(=C/CNc1ncnc2c1ncn2CCC(=O)O)CO	> 100 µM	> 100 µM	> 100 µM	> 100 µM	–	> 100 µM	> 100 µM	> 100 µM	> 100 µM	> 100 µM	> 100 µM	> 100 µM	> 100 µM	> 100 µM	> 100 µM	–	> 100 µM	> 100 µM	–	> 100 µM
C/C(Sc1ccccc1)=C1/CCCN(Cc2ccccc2)C1	32.9 µM	> 100 µM	53.3 µM	–	42.5 µM	61.4 µM	> 100 µM	38.6 µM	28.6 µM	> 100 µM	96.1 µM	38.8 µM	38.8 µM	> 100 µM	50.9 µM	34 µM	86.3 µM	33.5 µM	57.8 µM	41.6 µM
CCOC(=O)CC/C(C)=N\n1c(Cc2ccc(Cl)cc2)n[nH]c1=O	–	–	> 100 µM	> 100 µM	> 100 µM	> 100 µM	> 100 µM	> 100 µM	> 100 µM	> 100 µM	> 100 µM	> 100 µM	> 100 µM	> 100 µM	> 100 µM	> 100 µM	> 100 µM	> 100 µM	> 100 µM	> 100 µM
CCC(C#N)N(Cc1ccc(CN(C(=O)c2ccccc2)C(C#N)CC)cc1)C(=O)c1ccccc1 (configuration not stated)	31.3 µM	93.3 µM	36.7 µM	96.8 µM	> 100 µM	90.4 µM	61.8 µM	> 100 µM	88.5 µM	> 100 µM	–	> 100 µM	48.2 µM	> 100 µM	> 100 µM	56.8 µM	68.8 µM	67 µM	56.1 µM	78.1 µM
COc1ccc2cc(-c3ccc(OC)c(OC)c3)c(=O)oc2c1	> 100 µM	> 100 µM	> 100 µM	> 100 µM	> 100 µM	> 100 µM	> 100 µM	> 100 µM	> 100 µM	> 100 µM	> 100 µM	> 100 µM	> 100 µM	> 100 µM	> 100 µM	> 100 µM	–	> 100 µM	> 100 µM	> 100 µM
COc1cc(O)c2c(=O)c3ccccc3n(C)c2c1	> 100 µM	> 100 µM	> 100 µM	> 100 µM	> 100 µM	79 µM	> 100 µM	> 100 µM	> 100 µM	> 100 µM	> 100 µM	> 100 µM	> 100 µM	> 100 µM	> 100 µM	> 100 µM	–	> 100 µM	> 100 µM	> 100 µM
CC(=O)Oc1ccn2nc(C)c(Cc3c(C)nn4ccc(OC(C)=O)cc34)c2c1	–	> 100 µM	–	> 100 µM	> 100 µM	> 100 µM	> 100 µM	> 100 µM	> 100 µM	> 10 µM	> 100 µM	> 100 µM	> 100 µM	> 100 µM	68.8 µM	> 100 µM	> 100 µM	> 100 µM	> 100 µM	> 100 µM
O=c1oc2ccccc2c(-c2ccc(O)cc2)c1Oc1ccc(Cl)cc1	56.2 µM	68.7 µM	46.1 µM	35.6 µM	> 100 µM	–	60.8 µM	72.1 µM	55 µM	67.6 µM	54.4 µM	43.7 µM	39.7 µM	75.9 µM	60.6 µM	54.2 µM	85.7 µM	> 100 µM	61.4 µM	86.3 µM
CC(C)Cc1ccc(C(C)/C=C2\CCC(CN3CCOCC3)C2=O)cc1 (configuration not stated)	48.4 µM	32.8 µM	24.1 µM	18.7 µM	16.4 µM	19.3 µM	19.8 µM	12.4 µM	32 µM	24.7 µM	33.8 µM	15.4 µM	9.95 µM	15.9 µM	29.3 µM	31.3 µM	22.1 µM	–	27.7 µM	35.5 µM
Cc1cc(C)nc(NC(=S)Nc2cccc(Cl)c2)c1	> 100 µM	> 100 µM	> 100 µM	> 100 µM	> 100 µM	> 100 µM	> 100 µM	> 100 µM	> 100 µM	> 100 µM	> 100 µM	–	> 100 µM	> 100 µM	> 100 µM	> 100 µM	> 100 µM	> 100 µM	> 100 µM	> 100 µM
NC(=S)SC1=NNC2(C(=O)N1)c1ccccc1-c1ccccc12	> 10 µM	> 10 µM	> 10 µM	> 10 µM	> 10 µM	> 10 µM	> 10 µM	–	> 10 µM	> 10 µM	> 10 µM	> 10 µM	–	> 10 µM	> 10 µM	–	> 10 µM	> 10 µM	–	> 10 µM
C#CCn1c(=O)c(C)cn(/C(=C/C(=O)OCC)C(=O)OCC)c1=O	> 22.7 µM	21.1 µM	32.2 µM	13.7 µM	4.07 µM	30.5 µM	13 µM	> 69.4 µM	4.07 µM	43.8 µM	7.83 µM	–	19.6 µM	25.6 µM	40.5 µM	27.2 µM	28.8 µM	20.3 µM	25.2 µM	4.9 µM
Cn1ccnc1SC(F)(F)c1nc2ccccc2o1	> 100 µM	–	> 100 µM	> 100 µM	> 100 µM	> 100 µM	> 100 µM	> 100 µM	> 100 µM	> 100 µM	> 100 µM	> 100 µM	> 100 µM	> 100 µM	> 100 µM	> 100 µM	> 100 µM	> 100 µM	> 100 µM	> 100 µM
O=[N+]([O-])c1nccn1CCCN=c1c2ccccc2n(O)c2ccccc12	55.6 µM	> 100 µM	–	> 100 µM	> 100 µM	> 100 µM	> 100 µM	> 100 µM	> 100 µM	> 100 µM	> 100 µM	> 100 µM	> 100 µM	> 100 µM	> 100 µM	> 100 µM	> 100 µM	> 100 µM	> 100 µM	> 100 µM
CCC(C)[C@H]1C(=O)N=C(N)N1C(=O)OCc1ccccc1 (some centres not stated)	> 100 µM	> 100 µM	> 100 µM	> 100 µM	> 100 µM	> 100 µM	> 100 µM	> 100 µM	> 100 µM	> 100 µM	> 100 µM	> 100 µM	> 100 µM	> 100 µM	> 100 µM	> 100 µM	> 100 µM	–	> 100 µM	> 100 µM
CC(=O)OC[C@@]12CC[C@H]3C(C)(C)CCC[C@]3(C)[C@H]1C[C@@H](C1=CC(=O)O[C@H]1O)O2	10.4 µM	24.3 µM	3.12 µM	9.07 µM	5.15 µM	23 µM	5.78 µM	3.56 µM	–	5.53 µM	29 µM	8.03 µM	3.99 µM	28.1 µM	21.3 µM	4.37 µM	–	8.67 µM	–	–
Cn1c(=O)c2[nH]c(/N=N\n3ccc4ccccc43)nc2n(C)c1=O	> 100 µM	> 100 µM	> 100 µM	> 100 µM	> 100 µM	> 100 µM	–	> 100 µM	> 100 µM	> 100 µM	> 100 µM	> 100 µM	> 100 µM	> 100 µM	> 100 µM	–	> 100 µM	> 100 µM	> 100 µM	> 100 µM
Nc1cc(OCc2ccccc2)c(OCc2ccccc2)cc1C=O	77.3 µM	> 100 µM	34.5 µM	96.8 µM	> 100 µM	–	> 100 µM	> 100 µM	–	> 100 µM	52.8 µM	24.5 µM	–	> 100 µM	70 µM	> 100 µM	> 100 µM	> 100 µM	93.9 µM	> 100 µM
NNC(=O)CC(=O)Nc1ccc(C(=O)O)cc1	> 100 µM	> 100 µM	–	> 100 µM	> 100 µM	> 100 µM	> 100 µM	> 100 µM	> 100 µM	> 100 µM	> 100 µM	> 100 µM	> 100 µM	> 100 µM	> 100 µM	> 100 µM	> 100 µM	> 100 µM	> 100 µM	> 100 µM
CCN(CC)CCC(=O)c1ccc(Oc2ccc(C)cc2)cc1	45.1 µM	38.2 µM	36.2 µM	31.2 µM	33.8 µM	39.3 µM	35.7 µM	> 100 µM	33.7 µM	31.5 µM	–	–	32.4 µM	33.8 µM	36.4 µM	> 100 µM	35.7 µM	40.2 µM	30.7 µM	86.8 µM
CSc1c(C#N)c(O)n(-c2ccc(Cl)cc2)c(=O)c1C#N	> 100 µM	> 100 µM	> 100 µM	> 100 µM	> 100 µM	–	> 100 µM	> 100 µM	> 100 µM	> 100 µM	> 100 µM	> 100 µM	> 100 µM	> 100 µM	–	> 100 µM	> 100 µM	> 100 µM	> 100 µM	> 100 µM
Nc1ccc(S(=O)(=O)Nc2nc3ccccc3nc2Nc2ccc(S(N)(=O)=O)cc2)cc1	> 100 µM	> 100 µM	–	> 100 µM	> 100 µM	> 100 µM	> 100 µM	> 100 µM	97.4 µM	> 100 µM	> 100 µM	96.6 µM	> 100 µM	60.7 µM	72.1 µM	45.6 µM	69.6 µM	> 100 µM	> 100 µM	> 100 µM
